Source: patent US7998938B2, “Cancer treatment by combined inhibition of proteasome and telomerase activities” (Geron Corporation, priority 2005, dated 2011)
Strand notation (5' to 3'): a small letter for the sugar, then the base; units joined by * are phosphorothioate-linked, units joined directly phosphodiester-linked; [ ] holds rarer units or linkages, { } end groups; capitals alone tell only the bases. [NPS] = N3'→P5' thiophosphoramidate internucleoside linkage; [NP] = N3'→P5' phosphoramidate internucleoside linkage; d = 2'-deoxy (DNA)

Test system: CAG MM cell line
Assay: not given
Type: in vivo, NOD/SCID mice
Settings: Group 4, intravenous 0.25 mg/kg; p<0.01
Protocol: The CAG MM cell line (telomere length 2.7 Kb) was transfected with a retroviral vector encoding a triple fusion gene for HSV-TK, firefly luciferase and green fluorescence protein, and whole animal bioluminescence imaging was undertaken in a disseminated NOD/SCID model with extensive spinal cord and bone marrow tumor infiltration. NOD/SCID mice were not irradiated with gamma ray before cell implantation. […] Bortezomib was administered intravenously at a dose of 0.25 mg/kg (Table 1).
The results are discussed in Section IVA above, with reference to FIGS. 4A-B.

Compound	survival relative to PBS controls
CC(C)C[C@H](NC(=O)[C@H](Cc1ccccc1)NC(=O)c1cnccn1)B(O)O [bortezomib]	significant increase

Test system: telomerase
Assay: Inhibition of telomerase, biochemical (FlashPlate) assay
Set-up: species or system human
Settings: NPS linkages unless NP backbone stated

Compound	IC50 [nM]
11-mer; truncation of GRN163 sequence: NPS oligonucleotide TAGGGTTAGAC (SEQ ID NO: 15) (DNA, all [NPS], methylation of C not given here)	0.85 ± 0.35
12-mer; truncation of GRN163 sequence: NPS oligonucleotide TAGGGTTAGACA (SEQ ID NO: 14) (DNA, all [NPS], methylation of C not given here)	0.36 ± 0.2
Alternative targeting 11-mer: NPS oligonucleotide GTTAGGGTTAG (SEQ ID NO: 16) (DNA dG[NPS]dT[NPS]dT[NPS]dA[NPS]dG[NPS]dG[NPS]dG[NPS]dT[NPS]dT[NPS]dA[NPS]dG)	0.51 ± 0.13
Alternative targeting 13-mer: NPS oligonucleotide CAGTTAGGGTTAG (SEQ ID NO: 13), complementary to nucleotides 46-58 of SEQ ID NO: 1 (DNA, all [NPS], methylation of C not given here)	0.049 ± 0.007
Complement of GRN163 sequence: NPS oligonucleotide TTGTCTAACCCTA (SEQ ID NO: 24) (DNA, all [NPS], methylation of C not given here)	1000 ± 46
Duplex of GRN163 sequence: Duplex TAGGGTTAGACAA / ATCCCAATCTGTT (chemistry not fully specified; one strand is listed 3' to 5')	8.9 ± 3
Mismatch of GRN163 sequence with NP backbone: TAGGTGTAAGCAA with NP backbone (DNA, all [NP], methylation of C not given here)	> 1000
Mismatch of GRN163 sequence: NPS oligonucleotide TAGGTGTAAGCAA (SEQ ID NO: 23) (DNA, all [NPS], methylation of C not given here)	80 ± 31
Mismatch of alternative targeting 11-mer: NPS oligonucleotide GTTGAGTGTAG (SEQ ID NO: 25) (DNA dG[NPS]dT[NPS]dT[NPS]dG[NPS]dA[NPS]dG[NPS]dT[NPS]dG[NPS]dT[NPS]dA[NPS]dG)	177 ± 93
Oligo-T 10-mer: Oligonucleotide TTTTTTTTTT (SEQ ID NO: 27)	> 1000
Telomere repeat unit: Oligonucleotide TTAGGG (SEQ ID NO: 26)	> 1000
